Activity calls are given as the source filed them. The rule behind the calls is not given here.
Molecular target: Nuclear receptor coactivator 1 (Homo sapiens) (UniProt Q15788)
Experiment: SRC1 coactivator transcriptional activity inhibitors, dose response, counter-screen for SRC3 inhibitor project, cell-based, luminescence (AID 602168)
Conditions: Cell-based SRC1 luciferase reporter

Chain of Nuclear receptor coactivator 1 (Homo sapiens) (Q15788 whole entry, looked up): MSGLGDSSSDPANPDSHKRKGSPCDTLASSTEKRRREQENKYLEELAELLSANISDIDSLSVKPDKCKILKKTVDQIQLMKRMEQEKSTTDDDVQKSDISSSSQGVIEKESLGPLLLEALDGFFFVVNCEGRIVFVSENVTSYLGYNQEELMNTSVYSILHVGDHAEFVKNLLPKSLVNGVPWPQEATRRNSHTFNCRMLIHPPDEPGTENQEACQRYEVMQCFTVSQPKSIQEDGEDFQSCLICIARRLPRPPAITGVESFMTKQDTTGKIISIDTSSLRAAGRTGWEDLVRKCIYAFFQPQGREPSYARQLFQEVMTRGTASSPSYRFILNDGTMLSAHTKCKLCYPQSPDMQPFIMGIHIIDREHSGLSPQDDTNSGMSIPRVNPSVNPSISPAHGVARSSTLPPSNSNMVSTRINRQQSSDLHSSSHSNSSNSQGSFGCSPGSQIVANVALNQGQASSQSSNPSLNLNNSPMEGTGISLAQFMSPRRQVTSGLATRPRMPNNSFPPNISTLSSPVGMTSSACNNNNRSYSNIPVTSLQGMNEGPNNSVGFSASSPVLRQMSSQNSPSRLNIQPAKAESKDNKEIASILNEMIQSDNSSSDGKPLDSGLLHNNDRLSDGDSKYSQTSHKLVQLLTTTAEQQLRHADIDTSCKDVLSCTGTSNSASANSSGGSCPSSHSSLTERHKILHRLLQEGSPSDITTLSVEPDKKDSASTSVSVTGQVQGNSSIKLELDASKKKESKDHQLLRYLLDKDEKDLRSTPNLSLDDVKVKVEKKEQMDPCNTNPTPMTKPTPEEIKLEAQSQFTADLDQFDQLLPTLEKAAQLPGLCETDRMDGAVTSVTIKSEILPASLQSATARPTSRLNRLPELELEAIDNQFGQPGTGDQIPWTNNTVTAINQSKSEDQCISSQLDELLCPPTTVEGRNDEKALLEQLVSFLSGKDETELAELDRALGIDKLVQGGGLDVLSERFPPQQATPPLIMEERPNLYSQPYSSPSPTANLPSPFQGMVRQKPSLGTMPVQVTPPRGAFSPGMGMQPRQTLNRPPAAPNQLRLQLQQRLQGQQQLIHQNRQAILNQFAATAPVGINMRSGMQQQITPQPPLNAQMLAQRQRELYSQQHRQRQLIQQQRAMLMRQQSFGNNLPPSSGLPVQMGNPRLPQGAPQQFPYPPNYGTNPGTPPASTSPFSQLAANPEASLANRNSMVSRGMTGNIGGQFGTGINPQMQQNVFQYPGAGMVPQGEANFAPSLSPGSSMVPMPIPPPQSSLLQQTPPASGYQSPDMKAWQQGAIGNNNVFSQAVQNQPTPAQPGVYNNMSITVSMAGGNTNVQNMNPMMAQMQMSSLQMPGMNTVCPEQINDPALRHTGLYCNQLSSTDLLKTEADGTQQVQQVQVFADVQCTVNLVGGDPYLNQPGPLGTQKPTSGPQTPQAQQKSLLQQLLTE

Row | Compound | IC50
1 | CN1C(=O)C2(C(C#N)=C(N)N(c3cc(Cl)cc(Cl)c3)C3=C2C(=O)CC(C)(C)C3)c2ccccc21 (stereo unspecified) | > 35.9 µM (inactive)
2 | CCOc1cc(C(N)=O)cc(Br)c1OC | inactive
3 | O=C(OCc1ccccc1)c1ccc(NCc2cc(O)ccc2O)cc1 | > 12 µM (inactive)
4 | COc1cccc(-c2nnc3sc(C4CCCCC4)nn23)c1 | 3.46 µM
5 | c1ccc(-c2noc(-c3ccc4ccccc4c3)n2)nc1 | inactive
6 | Nc1ccc(Oc2ccccc2-c2ccccc2)cc1 | inactive
7 | Cc1ccc2occ(/C=N/NC(=O)c3ccccc3Br)c(=O)c2c1 | > 35.9 µM (inactive)

The next lines start with the values.

Row | IC50 | Compound
8 | inactive | O=C(CCCc1nc(-c2ccccc2Cl)no1)NC1CCCC1
9 | > 35.9 µM (inactive) | NS(=O)(=O)c1ccc(Sc2nc3ccccc3s2)c([N+](=O)[O-])c1
10 | > 35.9 µM (inactive) | Cc1ccc(-n2c(C)cc(C(=O)COc3cccnc3[N+](=O)[O-])c2C)cc1
11 | inactive | Nc1ncccc1C(=O)OCC(=O)N1CCN(S(=O)(=O)c2ccc(Cl)cc2)CC1

— PubChem BioAssay AID602168 (The Scripps Research Institute Molecular Screening Center, 2012)
